Data on two compounds can be found in patent US8158589B2, “Peptides with the capacity to bind to transforming growth factor β1 (TGF-β1)” (Proyecto Biomedicine Cima, S.L., priority 2003, dated 2012).

Ends that are not written are not given here.

Assay [1] deals with T1, TGF-β1 (Rattus norvegicus, UniProt P17246).
T1 construct: from tissue; host or cells: cornea of Long-Evans rats
In words: Corneal fibrosis and haze after 1 N NaOH damage, topical eye drops, photographs analysed with ImageJ. It is filed as in vivo, Long-Evans rats. An excerpt:
Male Long-Evans rats aged 10 weeks were used, divided into 5 groups: • Group 1: 12 rats, 6 treated with dexamethasone and 6 treated with mitomycin C • Group 2: 12 rats, 6 treated with p17 of the first formulation (see section 6.1.2.b) and 6 treated with p144 of the first formulation (see section 6.1.2.b) • Group 3: 12 rats, 6 treated with p17 of the second formulation (see section 6.1.2.b) and 6 treated with p144 of the second formulation (see section 6.1.2.b) • Group 4: 12 rats, 6 treated with p17 of the third formulation (see section 6.1.2.b) and 6 treated with p144 of the third formulation (see section 6.1.2.b) • Group 5: 12 rats, 6 treated with p17 of the fourth formulation (see section 6.1.2.b) and 6 treated with p144 of the fourth formulation (see section 6.1.2.b) • Group 6: 12 rats, 6 treated with p17 of the fifth formulation (see section 6.1.2.b) and 6 treated with p144 of the fifth formulation (see section 6.1.2.b)
To perform the damage in the cornea, the animals were anesthetized with isoflurane and a 5 mm Whatman paper disc impregnated in 1 N NaOH for 30 seconds was applied to them in the central part of the eye. After the damage, they were washed with abundant physiological saline serum and an antibiotic ointment was applied to them to prevent possible infections in the affected area.
After conducting several in vivo studies with the previously described groups of animals, it could be concluded that the chemical damage occurring after the application of NaOH for 30 seconds caused an excessive lesion for the study which was to be conducted, therefore it was decided to conduct new experiments reducing the time to 15 seconds.
It was randomly established that the left eye of each animal would act as a control and that the right eye would be the treated eye, such that the same animals acts as a control in addition to being treated. It must be pointed out that all the animals received antibiotic treatment in both eyes daily only during the first week of the study for the purposes of avoiding microbial keratitis.
Starting from 0.15% sodium hyaluronate (Hyabak 10 mL, Thea) without preservatives: • p144: 20 mg were dissolved in 5 ml of eye drops, 40 μl of saturated concentrated NaOH were incorporated, stirring and adding in portions of 5 μl. It was sonicated until solubilization. To adjust the pH, 500 μl of 1M Hepes were added, such that the pH changed from 10.5 to 7 • p144 control: 40 μl of saturated NaOH and 500 μl of 1 M HEPES (final concentration of HEPES 50 mM) • p17: 20 mg were dissolved in 5 ml of the eye drops, it was sonicated until complete solubilization and it was incorporated to the vial with a 10 ml syringe and a blue needle to perforate the filter of the contained (final concentration 2 mg/ml) • p17 control: non-manipulated eye drops • Note: The formulations were maintained at 4° C. throughout the study.
The administration of the treatment was initiated twenty-four hours after the damage. After that time a follow-up of the damage was performed, which consisted of taking photographs at days 0, 7, 14, 21, 28 and 35. To take the photographs the animals were anesthetized with isoflurane. Photographs were taken of both the control eye (left) and of the treated eye (right) with and without fluorescein. The photographs with fluorescein allowed to observe the evolution of the epithelial closure of the generated lesion, whereas the photographs without fluorescein show the evolution of the haze of the lesioned area. […]

Assay [2] concerns the target T2, TGF-β1 (Homo sapiens, UniProt P01137). In words: Immunofluorescence of p-Smad2 translocation to the nucleus in rabbit corneal fibroblasts. It is filed as cell-based. The conditions noted are these: TGF-β1 treated rabbit corneal fibroblasts. Also on record: host or cells: added to a primary culture of rabbit corneal fibroblasts. How it is done: (§1) Therefore, Western Blot and immunofluorescence studies were conducted to determine, from cells extracted from the in vivo studies, the signaling pathway used by the peptides administered topically. It should be emphasized that said studies were conducted on fibroblasts from rabbit cornea and not from rat cornea. This decision was made due to the difficulty entailed in isolating fibroblasts from rodent eyes.

The target in assay [3] is T2, TGF-β1. As to the kind of experiment: Western Blot of p-Smad2, Smad2/3 and Smad7 in primary culture of rabbit corneal fibroblasts. The assay is classed as cell-based. Also on record: host or cells: added to a primary culture of rabbit corneal fibroblasts. On the procedure: as §1
Since the scientific literature repeatedly describes the TGF-β1 signaling pathways, the decision was made to go into depth in such pathways by means of the techniques described in the methodology section. Said pathways involve the study of the Smad protein family, specifically the study of the isoforms Smad2, 2/3 and 7.
To that end, protein extracts obtained from the primary culture of rabbit fibroblasts were treated with TGF-β1 at concentrations of 0, 3 and 5 ng/ml and, 50 and 200 μg/ml of peptide p17 and p144.
(In general: Immunoblotting shows a protein as a band on a membrane.)

For assay [4], the target named is T3, TGF-β1 (Mus musculus, UniProt P04202).
T3 construct: from tissue; host or cells: liver of Balb/C mice (CCl4 model); lung of C57BL/6 mice (bleomycin model)
T3 sequence (P04202 279-390 limits assumed): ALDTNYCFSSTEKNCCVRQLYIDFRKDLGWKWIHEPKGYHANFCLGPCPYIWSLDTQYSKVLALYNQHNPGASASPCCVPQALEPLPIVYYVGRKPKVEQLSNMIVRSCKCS
In words: Model of acute liver damage induced by CCl4, type I collagen mRNA by real time PCR. It is filed as in vivo, mice. On the procedure: Acute liver damage generates a cascade of effects and physiological responses, including elevations in the concentrations of TGF-β1. This elevation is responsible for the expression of the type I collagen gene, among others. In this model of acute liver damage, female Balb/C mice weighing 25 to 30 g, were orally administered a dose of 2 μl of CCl4 (per gram of body weight) dissolved in an equivalent volume of corn oil (volumetric ratio of 1:1). The control group received an equivalent volume of corn oil only, and the treated groups received (following the single oral administration of CCl4 in corn oil) 50 μg of peptide in 500 μl of 1% physiological saline solution in DMSO (dimethyl sulfoxide) every 24 h. After 72 hours all animals were sacrificed, and the liver samples were processed. To evaluate mRNA expression, liver tissue was frozen in liquid nitrogen and stored at −80° C. until further use. Other liver tissue samples were stored in OCT® or Tissue-Tek® (Sakura Finetek B.V.) and processed in the same way as the samples used for mRNA studies. Other liver samples were fixed in 10% buffered formalin solution, embedded in paraffin and processed for their histological evaluation. The amount of mRNA encoding type I collagen was quantified in all groups using a quantitative polymerase chain reaction (PCR) technique. […] The capacity of the testing peptides to block the acute damage, as assessed by measuring the levels of induced type I collagen mRNA was quantified by real time PCR. […] The peptides tested were obtained by conventional solid peptide synthesis procedures (Merrifield R B. J Am Chem Soc 1963; 85:2149-2154; Atherton E et al. J Chem Soc Perkin Trans 1981; 1:538-546).
In general terms: Real-time PCR tracks product formation cycle by cycle.

Setting [5] is: fifth formulation eye drops, treated right eye vs control left eye.
Where [6] appears, read: primary culture, TGF-β1 and peptide.

T1 sequence (P17246 279-390 limits assumed): as the sequence (P04202 279-390 limits assumed) above
T2 sequence (P01137 279-390 limits assumed, species assumed): as the sequence (P04202 279-390 limits assumed) above, with S75A counted along it

For TSLDASIIWAMMQN [P144], at TGF-β1 [1] (setting [5]), the corneal haze entry is listed as “clear decrease” and the “epithelial closure (fluorescein)” value is given as “clear decrease”. In addition, on TGF-β1 [2], the “translocation of p-Smad2 to the nucleus” value was “inhibited”. For the same compound, the “expression of p-Smad2” value at TGF-β1 [3] (peptide 50 μg/ml) is “slight inhibition”. In addition, on TGF-β1 [3] (peptide 200 μg/ml), the “expression of p-Smad2” value is on record as “reaching the values of the controls”. Also, at TGF-β1 [3] (setting [6]), the “expression of Smad 2/3” value was “not affected” and the “expression of Smad 7” value is “not modified”. Moreover, the “% Inhibition of type I collagen mRNA induction (in vivo TGF-β1 biological activity)” value at TGF-β1 [4] (Balb/C mice, oral CCl4, 50 μg of peptide every 24 h, sacrifice after 72 hours) was −3.51 ± 36%. Besides, the “inhibition of the biological activity of TGF-β1 in vivo (in words)” value at TGF-β1 [4] (acute liver damage, type I collagen mRNA) was “does not show any activity”.

Turning to `CO[C@@]12[C@H](COC(N)=O)C3=C(C(=O)C(C)=C(N)C3=O)N1C[C@@H]1N[C@@H]12` [mitomycin C], the “clinical efficacy in the treatment of corneal fibrosis” value on TGF-β1 [1] (first experiment, Group 1) is on record as “correspond to those described in the scientific literature”.
